Test results reported in patent US20260297092A1, “PYRAZOLOPYRIMIDINE DERIVATIVES AS INHIBITORS OF NLRP3” (Takeda Pharmaceutical Company Limited, priority 2023, published 2026).

How the values were obtained:
[1] = system: NLRP3 inflammasome (IL-1β production in THP-1 cells); assay: IL-1β TR-FRET Assay (percentage of inhibition at 300 nM, 6 μM or 10 μM); assay type: cell-based, human; conditions: Homo sapiens, LPS priming, ATP activation; for inhibition at 0.3 µM: THP-1, 300 nM, read-out: IL-1β inhibitory rate at 300 nM (%); for inhibition at 6 µM: THP-1, 6 μM, read-out: IL-1β inhibitory rate at 6 μM (%)
Outline: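 Percent inhibition of IL-1β used DMSO wells as 0% and 3 μM MCC-950 wells as full inhibition, with supernatant read by HTRF. Beforehand, IFN-γ-differentiated (25 ng/mL, 24 h), LPS-primed (50 ng/mL, 24 h) THP-1 cells received compound 30 min before inflammasome activation by 20 mM ATP for 2 h.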

[2] = system: TNF-α (NF-κB pathway, THP-1 cells); assay: TNF-α Assay (IC50); assay type: cell-based, human; conditions: Homo sapiens, 600 ng/mL LPS, 3 hours
Outline: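 Supernatant TNF-α quantified by ELISA after 3 h stimulation with 600 ng/mL LPS at 37 °C, following 30 min compound preincubation. Cells: IFN-differentiated (25 ng/mL, 24 h) THP-1 macrophages, 40,000/well, serum-free. IC50 by sigmoidal fit of % inhibition, with TPCA-1 as 100% control.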

CCOc1nc2nn(-c3ccc(CC)cc3O)c(C)c2c(=O)[nH]1 [Example 49, 6-ethoxy-2-(4-ethyl-2-hydroxyphenyl)-3-methyl-2,5-dihydro-4H-pyrazolo[3,4-d]pyrimidin-4-one]
inhibition at 0.3 µM [1]: 98% | IC50 [2]: > 30 µM

COC(C)Cc1nc2nn(-c3c(C)cc(C)cc3O)cc2c(=O)[nH]1 (stereo not drawn) [Example 27, 2-(2-hydroxy-4,6-dimethylphenyl)-6-(2-methoxypropyl)-2,5-dihydro-4H-pyrazolo[3,4-d]pyrimidin-4-one]
inhibition at 0.3 µM [1]: 94% | IC50 [2]: > 30 µM

CCOc1nc2nn(-c3c(C)cc(C)cc3C)cc2c(=O)[nH]1 [Example 106, 6-ethoxy-2-(2,4,6-trimethylphenyl)-2,5-dihydro-4H-pyrazolo[3,4-d]pyrimidin-4-one]
inhibition at 0.3 µM [1]: 97% | IC50 [2]: > 30 µM

CO[C@H]1COCC[C@@H]1c1nc2nn(-c3c(C)cc(C4CC4)cc3C)cc2c(=O)[nH]1 (racemic) [Example 311, racemic mixture of 1,5-anhydro-3-[2-(4-cyclopropyl-2,6-dimethylphenyl)-4-oxo-4,5-dihydro-2H-pyrazolo[3,4-d]pyrimidin-6-yl]-2,3-dideoxy-4-O-methyl-L-threo-pentitol and 1,5-anhydro-3-[2-(4-cyclopropyl-2,6-dimethylphenyl)-4-oxo-4,5-dihydro-2H-pyrazolo[3,4-d]pyrimidin-6-yl]-2,3-dideoxy-4-O-methyl-D-threo-pentitol]
inhibition at 6 µM [1]: 102% | IC50 [2]: > 30 µM

CCOc1nc2nn(-c3c(C)cc(C)cc3O)cc2c(=O)[nH]1 [Example 1, 6-ethoxy-2-(2-hydroxy-4,6-dimethylphenyl)-2,5-dihydro-4H-pyrazolo[3,4-d]pyrimidin-4-one]
inhibition at 0.3 µM [1]: 100% | IC50 [2]: > 30 µM

Cc1cc(C)c(-n2cc3c(=O)[nH]c(-c4ccn(C)n4)nc3n2)c(O)c1 [Example 23, 2-(2-hydroxy-4,6-dimethylphenyl)-6-(1-methyl-1H-pyrazol-3-yl)-2,5-dihydro-4H-pyrazolo[3,4-d]pyrimidin-4-one]
inhibition at 0.3 µM [1]: 100% | IC50 [2]: > 30 µM

COCCOc1nc2nn(-c3c(C)cc(Br)cc3C(F)F)cc2c(=O)[nH]1 [Example 215, 2-[4-bromo-2-(difluoromethyl)-6-methylphenyl]-6-(2-methoxyethoxy)-2,5-dihydro-4H-pyrazolo[3,4-d]pyrimidin-4-one]
inhibition at 0.3 µM [1]: 105% | IC50 [2]: > 30 µM

CCOc1nc2nn(-c3c(C)cc(C)cc3O)c(C)c2c(=O)[nH]1 [Example 37, 6-ethoxy-2-(2-hydroxy-4,6-dimethylphenyl)-3-methyl-2,5-dihydro-4H-pyrazolo[3,4-d]pyrimidin-4-one]
inhibition at 0.3 µM [1]: 101% | IC50 [2]: > 30 µM

O=c1[nH]c([C@H]2COCCO2)nc2nn(-c3c(F)cc(C4CC4)cc3C(F)F)cc12 (single isomer, unassigned) [Example 312, 2-[4-cyclopropyl-2-(difluoromethyl)-6-fluorophenyl]-6-[(2R)-1,4-dioxan-2-yl]-2,5-dihydro-4H-pyrazolo[3,4-d]pyrimidin-4-one or 2-[4-cyclopropyl-2-(difluoromethyl)-6-fluorophenyl]-6-[(2S)-1,4-dioxan-2-yl]-2,5-dihydro-4H-pyrazolo [3,4-d]pyrimidin-4-one]
inhibition at 6 µM [1]: 104% | IC50 [2]: > 30 µM

CCOc1nc2nn(-c3ncc(Br)cc3C(F)(F)F)cc2c(=O)[nH]1 [Example 148, 2-[5-bromo-3-(trifluoromethyl)pyridin-2-yl]-6-ethoxy-2,5-dihydro-4H-pyrazolo[3,4-d]pyrimidin-4-one]
inhibition at 0.3 µM [1]: 96% | IC50 [2]: > 30 µM

CCOc1nc2nn(-c3c(C)cc(C4CC4)cc3OC(F)F)cc2c(=O)[nH]1 [Example 222, 2-[4-cyclopropyl-2-(difluoromethoxy)-6-methylphenyl]-6-ethoxy-2,5-dihydro-4H-pyrazolo[3,4-d]pyrimidin-4-one]
inhibition at 0.3 µM [1]: 98% | IC50 [2]: > 30 µM

CCOc1nc2nn(-c3ccc(C)cc3F)cc2c(=O)[nH]1 [Example 113, 6-ethoxy-2-(2-fluoro-4-methylphenyl)-2,5-dihydro-4H-pyrazolo[3,4-d]pyrimidin-4-one]
inhibition at 0.3 µM [1]: 67% | IC50 [2]: > 30 µM

CCOc1nc2nn(-c3c(O)cc(C)cc3C3CC3)cc2c(=O)[nH]1 [Example 11, 2-(2-cyclopropyl-6-hydroxy-4-methylphenyl)-6-ethoxy-2,5-dihydro-4H-pyrazolo[3,4-d]pyrimidin-4-one]
inhibition at 0.3 µM [1]: 99% | IC50 [2]: > 30 µM

CCOc1nc2nn(-c3c(O)cc(C)cc3OC(F)F)cc2c(=O)[nH]1 [Example 116, 2-[2-(difluoromethoxy)-6-hydroxy-4-methylphenyl]-6-ethoxy-2,5-dihydro-4H-pyrazolo[3,4-d]pyrimidin-4-one]
inhibition at 0.3 µM [1]: 96% | IC50 [2]: > 30 µM

CCOc1nc2nn(-c3c(C)cc(OC(F)F)cc3CC(F)(F)F)cc2c(=O)[nH]1 [Example 168, 2-[4-(difluoromethoxy)-2-methyl-6-(2,2,2-trifluoroethyl)phenyl]-6-ethoxy-2,5-dihydro-4H-pyrazolo[3,4-d]pyrimidin-4-one]
inhibition at 0.3 µM [1]: 98% | IC50 [2]: > 30 µM

Cc1cc(C)c(-n2cc3c(=O)[nH]c(-c4ccccn4)nc3n2)c(O)c1 [Example 9, 2-(2-hydroxy-4,6-dimethylphenyl)-6-(pyridin-2-yl)-2,5-dihydro-4H-pyrazolo[3,4-d]pyrimidin-4-one]
inhibition at 0.3 µM [1]: 100% | IC50 [2]: > 30 µM

Cc1cc(C)c(-n2cc3c(=O)[nH]c(OCC(C)(F)F)nc3n2)c(O)c1 [Example 42, 6-(2,2-difluoropropoxy)-2-(2-hydroxy-4,6-dimethylphenyl)-2,5-dihydro-4H-pyrazolo[3,4-d]pyrimidin-4-one]
inhibition at 0.3 µM [1]: 97% | IC50 [2]: > 30 µM

Cc1cc(C)c(-n2cc3c(=O)[nH]c(C4(C)CC4)nc3n2)c(O)c1 [Example 25, 2-(2-hydroxy-4,6-dimethylphenyl)-6-(1-methylcyclopropyl)-2,5-dihydro-4H-pyrazolo[3,4-d]pyrimidin-4-one]
inhibition at 0.3 µM [1]: 100% | IC50 [2]: > 30 µM

Cc1cc(C2CC2)cc(C)c1-n1cc2c(=O)[nH]c([C@H]3C[C@@H](F)C3)nc2n1 [Example 249, 2-(4-cyclopropyl-2,6-dimethylphenyl)-6-[(1s,3s)-3-fluorocyclobutyl]-2,5-dihydro-4H-pyrazolo[3,4-d]pyrimidin-4-one]
inhibition at 6 µM [1]: 98% | IC50 [2]: > 30 µM

Cc1cc(C)c(-n2cc3c(=O)[nH]c(C4CN(C)CCO4)nc3n2)c(O)c1 (stereo not drawn) [Example 88, 2-(2-hydroxy-4,6-dimethylphenyl)-6-(4-methylmorpholin-2-yl)-2,5-dihydro-4H-pyrazolo[3,4-d]pyrimidin-4-one]
inhibition at 0.3 µM [1]: 86% | IC50 [2]: > 30 µM

CCOc1nc2nn(-c3c(C)cc(Br)cc3C)cc2c(=O)[nH]1 [Example 131, 2-(4-bromo-2,6-dimethylphenyl)-6-ethoxy-2,5-dihydro-4H-pyrazolo[3,4-d]pyrimidin-4-one]
inhibition at 0.3 µM [1]: 100% | IC50 [2]: > 30 µM

CCOc1nc2nn(-c3c(C)cc(Br)cc3-n3cccn3)cc2c(=O)[nH]1 [Example 144, 2-[4-bromo-2-methyl-6-(1H-pyrazol-1-yl)phenyl]-6-ethoxy-2,5-dihydro-4H-pyrazolo[3,4-d]pyrimidin-4-one]
inhibition at 0.3 µM [1]: 96% | IC50 [2]: > 30 µM

COC(C)(C)c1nc2nn(-c3c(C)cc(C)cc3O)cc2c(=O)[nH]1 [Example 85, 2-(2-hydroxy-4,6-dimethylphenyl)-6-(2-methoxypropan-2-yl)-2,5-dihydro-4H-pyrazolo[3,4-d]pyrimidin-4-one]
inhibition at 0.3 µM [1]: 92% | IC50 [2]: > 30 µM

CCOc1nc2nn(-c3c(C)cc(F)cc3F)cc2c(=O)[nH]1 [Example 126, 2-(2,4-difluoro-6-methylphenyl)-6-ethoxy-2,5-dihydro-4H-pyrazolo[3,4-d]pyrimidin-4-one]
inhibition at 0.3 µM [1]: 51% | IC50 [2]: > 30 µM

COCCc1nc2nn(-c3c(C)cc(C)cc3O)cc2c(=O)[nH]1 [Example 38, 2-(2-hydroxy-4,6-dimethylphenyl)-6-(2-methoxyethyl)-2,5-dihydro-4H-pyrazolo[3,4-d]pyrimidin-4-one]
inhibition at 0.3 µM [1]: 100% | IC50 [2]: > 30 µM

CCOc1nc2nn(-c3c(F)cc(C)cc3OC(F)F)cc2c(=O)[nH]1 [Example 108]
inhibition at 0.3 µM [1]: 98% | IC50 [2]: > 30 µM

COc1nc2nn(-c3c(C)cc(C4CC4)cc3CC(F)(F)F)cc2c(=O)[nH]1 [Example 230, 2-[4-cyclopropyl-2-methyl-6-(2,2,2-trifluoroethyl)phenyl]-6-methoxy-2,5-dihydro-4H-pyrazolo[3,4-d]pyrimidin-4-one]
inhibition at 6 µM [1]: 93% | IC50 [2]: > 30 µM

Cc1cc(O)c(-n2cc3c(=O)[nH]c(-c4ccncn4)nc3n2)c(C)c1C [Example 77, 2-(6-hydroxy-2,3,4-trimethylphenyl)-6-(pyrimidin-4-yl)-2,5-dihydro-4H-pyrazolo[3,4-d]pyrimidin-4-one]
inhibition at 0.3 µM [1]: 99% | IC50 [2]: > 30 µM

CCOc1nc2nn(-c3c(F)cc(OC(F)(F)F)cc3Br)cc2c(=O)[nH]1 [Example 104, 2-[2-bromo-6-fluoro-4-(trifluoromethoxy)phenyl]-6-ethoxy-2,5-dihydro-4H-pyrazolo[3,4-d]pyrimidin-4-one]
inhibition at 0.3 µM [1]: 99% | IC50 [2]: > 30 µM

COc1ccccc1-c1nc2nn(-c3c(C)cc(C)cc3O)cc2c(=O)[nH]1 [Example 47, 2-(2-hydroxy-4,6-dimethylphenyl)-6-(2-methoxyphenyl)-2,5-dihydro-4H-pyrazolo[3,4-d]pyrimidin-4-one]
inhibition at 0.3 µM [1]: 98% | IC50 [2]: > 30 µM
